Test results taken from ChEMBL document CHEMBL1147193, “New 5-substituted thiazolo[3,2-b][1,2,4]triazol-6-ones: synthesis and anticancer evaluation” (2007).

Tests used:
Type in all cases: functional
SNB-19 = test: Growth inhibition of human SNB19 cells after 48 hrs by SRB protein assay; settings: SNB-19, 48 h; for TGI: read-out: Log TGI (converted)
TK-10 = test: Growth inhibition of human TK10 cells after 48 hrs by SRB protein assay; settings: TK-10, 48 h; for TGI: read-out: Log TGI (converted)
CCRF-CEM = test: Growth inhibition of human CCRF-CEM cells after 48 hrs by SRB protein assay
SK-MEL-28 = test: Growth inhibition of human SK-MEL-28 cells after 48 hrs by SRB protein assay; settings: SK-MEL-28, 48 h; for TGI: read-out: Log TGI (converted)
SR = test: Growth inhibition of human SR cells after 48 hrs by SRB protein assay; settings: for TGI: read-out: Log TGI (converted)
MDA-MB-435 = test: Growth inhibition of human MDA-MB-435 cells after 48 hrs by SRB protein assay; settings: MDA-MB-435, 48 h; for TGI: read-out: Log TGI (converted)
SF-539 = test: Growth inhibition of human SF539 cells after 48 hrs by SRB protein assay; settings: SF-539, 48 h; for TGI: read-out: Log TGI (converted)
MOLT-4 = test: Growth inhibition of human MOLT4 cells after 48 hrs by SRB protein assay; settings: MOLT-4, 48 h; for TGI: read-out: Log TGI (converted)
COLO 205 = test: Growth inhibition of human COLO205 cells after 48 hrs by SRB protein assay; settings: COLO 205, 48 h; for TGI: read-out: Log TGI (converted)
NCI-H460 = test: Growth inhibition of human NCI-H460 cells after 48 hrs by SRB protein assay; settings: NCI-H460, 48 h; for TGI: read-out: Log TGI (converted)
IGROV-1 = test: Growth inhibition of human IGROV1 cells after 48 hrs by SRB protein assay; settings: IGROV-1, 48 h; for TGI: read-out: Log TGI (converted)
EKVX = test: Growth inhibition of human EKVX cells after 48 hrs by SRB protein assay; settings: for TGI: read-out: Log TGI (converted)
NCI-H322M = test: Growth inhibition of human NCI-H322M cells after 48 hrs by SRB protein assay; settings: for TGI: read-out: Log TGI (converted)
HOP-62 = test: Growth inhibition of human HOP62 cells after 48 hrs by SRB protein assay; settings: HOP-62, 48 h; for TGI: read-out: Log TGI (converted)
A498 = test: Growth inhibition of human A498 cells after 48 hrs by SRB protein assay; settings: A498, 48 h; for TGI: read-out: Log TGI (converted)
SK-OV-3 = test: Growth inhibition of human SK-OV-3 cells after 48 hrs by SRB protein assay; settings: SK-OV-3, 48 h; for TGI: read-out: Log TGI (converted)
SNB-75 = test: Growth inhibition of human SNB75 cells after 48 hrs by SRB protein assay; settings: SNB-75, 48 h; for TGI: read-out: Log TGI (converted)
SW-620 = test: Growth inhibition of human SW620 cells after 48 hrs by SRB protein assay; settings: SW-620, 48 h; for TGI: read-out: Log TGI (converted)
T47D = test: Growth inhibition of human T47D cells after 48 hrs by SRB protein assay; settings: for TGI: read-out: Log TGI (converted)
HL-60 = test: Growth inhibition of human HL60 cells after 48 hrs by SRB protein assay; settings: HL-60, 48 h; for TGI: read-out: Log TGI (converted)
DU-145 = test: Growth inhibition of human DU145 cells after 48 hrs by SRB protein assay; settings: DU-145, 48 h; for TGI: read-out: Log TGI (converted)
NCI-H23 = test: Growth inhibition of human NCI-H23 cells after 48 hrs by SRB protein assay; settings: NCI-H23, 48 h

**Q.** With `O=c1/c(=C/c2ccc(Cl)cc2)sc2ncnn12` as the compound, how does the GI50 (SNB-19) read?
**A.** Its GI50 is 16.2 µM.

**Q.** What about the TGI (SNB-19) of the same compound?
**A.** Its TGI is 32.4 µM.

**Q.** What about the GI50 (TK-10) of the same compound?
**A.** The GI50 was 16.6 µM.

**Q.** And the TGI (TK-10)?
**A.** Its TGI is 31.6 µM.

**Q.** What about the GI50 (CCRF-CEM) of the same compound?
**A.** Its GI50 is 355 nM.

**Q.** What about the TGI (CCRF-CEM; read-out: Log TGI (converted)) of the same compound?
**A.** Its TGI is 20 µM.

**Q.** And the GI50 (SK-MEL-28)?
**A.** The GI50 was 16.6 µM.

**Q.** And the TGI (SK-MEL-28)?
**A.** Its TGI is 35.5 µM.

**Q.** And the GI50 (SR)?
**A.** Its GI50 is 8.32 µM.

**Q.** And the TGI (SR)?
**A.** The TGI was 33.9 µM.

**Q.** What about the GI50 (MDA-MB-435) of the same compound?
**A.** The GI50 was 12.6 µM.

**Q.** What about the TGI (MDA-MB-435) of the same compound?
**A.** Its TGI is 26.9 µM.

**Q.** And the GI50 (SF-539)?
**A.** Its GI50 is 10.2 µM.

**Q.** And the TGI (SF-539)?
**A.** The TGI was 21.9 µM.

**Q.** And the GI50 (MOLT-4)?
**A.** Its GI50 is 1.62 µM.

**Q.** And the TGI (MOLT-4)?
**A.** Its TGI is 8.71 µM.

**Q.** And the GI50 (COLO 205)?
**A.** Its GI50 is 17 µM.

**Q.** And the TGI (COLO 205)?
**A.** The TGI was 38.9 µM.

**Q.** And the GI50 (NCI-H460)?
**A.** Its GI50 is 17.4 µM.

**Q.** What about the TGI (NCI-H460) of the same compound?
**A.** The TGI was 44.7 µM.

**Q.** What about the GI50 (IGROV-1) of the same compound?
**A.** The GI50 was 10 µM.

**Q.** And the TGI (IGROV-1)?
**A.** The TGI was 24.5 µM.

**Q.** What about the GI50 (EKVX) of the same compound?
**A.** The GI50 was 14.5 µM.

**Q.** And the TGI (EKVX)?
**A.** Its TGI is 33.9 µM.

**Q.** And the GI50 (NCI-H322M)?
**A.** Its GI50 is 13.2 µM.

**Q.** And the TGI (NCI-H322M)?
**A.** Its TGI is 26.3 µM.

**Q.** What about the GI50 (HOP-62) of the same compound?
**A.** The GI50 was 15.8 µM.

**Q.** What about the TGI (HOP-62) of the same compound?
**A.** The TGI was 35.5 µM.

**Q.** What about the GI50 (A498) of the same compound?
**A.** Its GI50 is 19.1 µM.

**Q.** What about the TGI (A498) of the same compound?
**A.** Its TGI is 33.1 µM.

**Q.** What about the GI50 (SK-OV-3) of the same compound?
**A.** Its GI50 is 29.5 µM.

**Q.** What about the TGI (SK-OV-3) of the same compound?
**A.** Its TGI is 55 µM.

**Q.** And the GI50 (SNB-75)?
**A.** Its GI50 is 14.1 µM.

**Q.** And the TGI (SNB-75)?
**A.** The TGI was 32.4 µM.

**Q.** What about the GI50 (SW-620) of the same compound?
**A.** The GI50 was 14.8 µM.

**Q.** What about the TGI (SW-620) of the same compound?
**A.** Its TGI is 30.9 µM.

**Q.** And the GI50 (T47D)?
**A.** The GI50 was 21.4 µM.

**Q.** And the TGI (T47D)?
**A.** Its TGI is over 100 µM.

**Q.** What about the GI50 (HL-60) of the same compound?
**A.** The GI50 was 0.537 µM.

**Q.** And the TGI (HL-60)?
**A.** The TGI was 2040 nM.

**Q.** What about the GI50 (DU-145) of the same compound?
**A.** Its GI50 is 12.9 µM.

**Q.** What about the TGI (DU-145) of the same compound?
**A.** Its TGI is 32.4 µM.

**Q.** And the GI50 (NCI-H23)?
**A.** Its GI50 is 17.8 µM.

**Q.** And the TGI (NCI-H23; read-out: Log TGI (converted))?
**A.** Its TGI is 38 µM.

**Q.** With `O=c1/c(=C/c2ccc(F)cc2)sc2ncnn12` as the compound, how does the GI50 (SNB-19) read?
**A.** Its GI50 is 63.1 µM.

**Q.** What about the TGI (SNB-19) of the same compound?
**A.** Its TGI is over 100 µM.

**Q.** What about the GI50 (TK-10) of the same compound?
**A.** The GI50 was over 100 µM.

**Q.** And the TGI (TK-10)?
**A.** The TGI was over 100 µM.

**Q.** And the GI50 (SK-MEL-28)?
**A.** Its GI50 is 52.5 µM.

**Q.** What about the TGI (SK-MEL-28) of the same compound?
**A.** The TGI was over 100 µM.

**Q.** And the GI50 (SR)?
**A.** Its GI50 is 15.5 µM.

**Q.** What about the TGI (SR) of the same compound?
**A.** The TGI was over 100 µM.

**Q.** And the GI50 (MDA-MB-435)?
**A.** Its GI50 is 37.2 µM.

**Q.** And the TGI (MDA-MB-435)?
**A.** Its TGI is over 100 µM.

**Q.** What about the GI50 (SF-539) of the same compound?
**A.** The GI50 was 30.2 µM.

**Q.** What about the TGI (SF-539) of the same compound?
**A.** The TGI was 93.3 µM.

**Q.** What about the GI50 (MOLT-4) of the same compound?
**A.** The GI50 was 38.9 µM.

**Q.** And the TGI (MOLT-4)?
**A.** Its TGI is over 100 µM.

**Q.** What about the GI50 (COLO 205) of the same compound?
**A.** The GI50 was 61.7 µM.

**Q.** And the TGI (COLO 205)?
**A.** Its TGI is over 100 µM.

**Q.** And the GI50 (NCI-H460)?
**A.** Its GI50 is 61.7 µM.

**Q.** What about the TGI (NCI-H460) of the same compound?
**A.** The TGI was over 100 µM.

**Q.** What about the GI50 (IGROV-1) of the same compound?
**A.** Its GI50 is 57.5 µM.

**Q.** And the TGI (IGROV-1)?
**A.** The TGI was over 100 µM.

**Q.** What about the GI50 (EKVX) of the same compound?
**A.** The GI50 was 83.2 µM.

**Q.** And the TGI (EKVX)?
**A.** Its TGI is over 100 µM.

**Q.** What about the GI50 (NCI-H322M) of the same compound?
**A.** Its GI50 is over 100 µM.

**Q.** What about the TGI (NCI-H322M) of the same compound?
**A.** Its TGI is over 100 µM.

**Q.** What about the GI50 (HOP-62) of the same compound?
**A.** The GI50 was 70.8 µM.

**Q.** And the TGI (HOP-62)?
**A.** Its TGI is over 100 µM.

**Q.** What about the GI50 (A498) of the same compound?
**A.** The GI50 was 61.7 µM.

**Q.** What about the TGI (A498) of the same compound?
**A.** Its TGI is over 100 µM.

**Q.** And the GI50 (SK-OV-3)?
**A.** The GI50 was over 100 µM.

**Q.** And the TGI (SK-OV-3)?
**A.** The TGI was over 100 µM.

**Q.** And the GI50 (SNB-75)?
**A.** Its GI50 is 58.9 µM.

**Q.** And the TGI (SNB-75)?
**A.** Its TGI is over 100 µM.

**Q.** And the GI50 (SW-620)?
**A.** Its GI50 is 66.1 µM.

**Q.** And the TGI (SW-620)?
**A.** Its TGI is over 100 µM.

**Q.** What about the GI50 (T47D) of the same compound?
**A.** Its GI50 is 91.2 µM.

**Q.** And the TGI (T47D)?
**A.** The TGI was over 100 µM.

**Q.** What about the GI50 (HL-60) of the same compound?
**A.** The GI50 was 6.46 µM.

**Q.** What about the TGI (HL-60) of the same compound?
**A.** Its TGI is over 100000 nM.

**Q.** And the GI50 (DU-145)?
**A.** Its GI50 is 39.8 µM.

**Q.** What about the TGI (DU-145) of the same compound?
**A.** Its TGI is over 100 µM.
